Measured values taken from patent publication US20200340007A1, “CLALS PROTEIN, ITS CODING GENE AND USE IN PREDICTING THE HERBICIDE RESISTANCE OF WATERMELON” (BEIJING ACADEMY OF AGRICULTURE AND FORESTRY SCIENCES, priority 2018, published 2020).

How the values were obtained:
[1] = system: P190L homozygous mutant strain seedlings; assay: Identification of herbicide resistance spectrum; assay type: in vivo, watermelon; conditions: leaf spray, tribenuron 15, halosulfuron 33.75, bensulfuron 22.5, pyrazosulfuron 24, flumetsulam 48, flucarbazone 31.5 g ai/ha, 7 days
Text: (§1) Watermelon seeds to be tested are seeds of non-transgenic watermelon, seeds of P190L homozygous mutant strain, seeds of P190S homozygous mutant strain, seeds of P190L heterozygous mutant strain, or seeds of P190S heterozygous mutant strain.
(§2) The experiment was repeated three times, and the steps for each are as follows:
(§3) 1. Planting 5 watermelon seeds to be tested in the field and culturing routinely for 10 days until the cotyledons are flattened to obtain the watermelon seedlings to be tested.
(§4) 2. After step 1 is completed, taking the watermelon seedlings to be tested and spraying the leaves with tribenuron, halosulfuron, bensulfuron, pyrazosulfuron, flumetsulam, and flucarbazone, respectively (spraying dose of tribenuron, halosulfuron, bensulfuron, pyrazosulfuron, flumetsulam, and flucarbazone were 15, 33.75, 22.5, 24, 48, and 31.5 g ai/ha; g represents gram, ai represents the active ingredient, ha represents hectare), and then culturing for 7 days to observe the growth status of the watermelon seedling to be tested.
(§5) 3. After step 1 is completed, taking the watermelon seedlings to be tested, spraying the leaves with the same volume of water as the herbicide in step 2, and then culturing for 7 days, to observe the growth status of the watermelon seedlings as a control.

[2] = system: P190S homozygous mutant strain seedlings; assay: Identification of herbicide resistance spectrum; assay type: in vivo, watermelon; conditions: leaf spray, tribenuron 15, halosulfuron 33.75, bensulfuron 22.5, pyrazosulfuron 24, flumetsulam 48, flucarbazone 31.5 g ai/ha, 7 days
Text: as §1, §2, §3, §4, §5

[3] = system: P190L heterozygous mutant strain seedlings; assay: Identification of herbicide resistance spectrum; assay type: in vivo, watermelon; conditions: leaf spray, tribenuron 15, halosulfuron 33.75, bensulfuron 22.5, pyrazosulfuron 24, flumetsulam 48, flucarbazone 31.5 g ai/ha, 7 days
Text: as §1, §2, §3, §4, §5

[4] = system: P190S heterozygous mutant strain seedlings; assay: Identification of herbicide resistance spectrum; assay type: in vivo, watermelon; conditions: leaf spray, tribenuron 15, halosulfuron 33.75, bensulfuron 22.5, pyrazosulfuron 24, flumetsulam 48, flucarbazone 31.5 g ai/ha, 7 days
Text: as §1, §2, §3, §4, §5

[5] = system: non-transgenic watermelon seedlings; assay: Identification of resistance to the herbicide tribenuron, seedlings sprayed in the field; assay type: in vivo; conditions: leaf spray 17 g ai/ha
Text: (§6) The watermelon seeds to be tested are seeds of non-transgenic watermelon, seeds of P190L homozygous mutant strains, seeds of P190S homozygous mutant strains, seeds of P190L heterozygote mutant strains, or seeds of P190S heterozygote mutant strains.
(§7) The experiment was repeated three times, and the steps for each were as follows:
(§8) 1. Planting 20 watermelon seeds to be tested in the field and culturing routinely to obtain watermelon seedlings to be tested in a two-leaf one-heart period.
(§9) 2. After step 1 is completed, taking the watermelon seedlings to be tested, spraying the leaves with tribenuron (the spraying dose is 17 g ai/ha; g represents gram, ai represents the active ingredient, and ha represents hectare), and then culturing routinely for 7 days to observe the growth status of the watermelon seedlings to be tested.

[6] = system: P190L homozygous mutant strain seedlings; assay: as above; assay type: in vivo, watermelon; conditions: leaf spray 17 g ai/ha
Text: as §6, §7, §8, §9

[7] = system: P190S homozygous mutant strain seedlings; assay: as above; assay type: in vivo, watermelon; conditions: leaf spray 17 g ai/ha
Text: as §6, §7, §8, §9

[8] = system: P190L heterozygous mutant strain seedlings; assay: as above; assay type: in vivo, watermelon; conditions: leaf spray 17 g ai/ha, observed 7 days
Text: as §6, §7, §8, §9

[9] = system: P190S heterozygous mutant strain seedlings; assay: as above; assay type: in vivo, watermelon; conditions: leaf spray 17 g ai/ha, observed 7 days
Text: as §6, §7, §8, §9

Structure (SMILES): COc1nc(C)nc(N(C)C(=O)NS(=O)(=O)c2ccccc2C(=O)O)n1 [tribenuron]
- resistance of seedlings to the herbicide compared with non-transgenic watermelon [1]: obvious resistance
- resistance of seedlings to the herbicide compared with non-transgenic watermelon [2]: obvious resistance
- resistance of seedlings to the herbicide compared with non-transgenic watermelon [3]: obvious resistance
- resistance of seedlings to the herbicide compared with non-transgenic watermelon [4]: obvious resistance
- time to death of seedlings after spraying [5]: 3 to 7 days
- growth status of the watermelon seedlings after spraying ([5]; two-leaf one-heart period, observed 7 days): died quickly
- growth after spraying compared with seedlings of the heterozygous mutant strains ([6]; 7 days): grew better
- growth status of the watermelon seedlings after spraying ([6]; observed 7 days): grew normally
- growth after spraying compared with seedlings of the heterozygous mutant strains ([7]; 7 days): grew better
- growth status of the watermelon seedlings after spraying ([7]; observed 7 days): grew normally
- growth status of the watermelon seedlings after spraying [8]: grew normally
- growth status of the watermelon seedlings after spraying [9]: grew normally

Structure (SMILES): COc1cc(OC)nc(NC(=O)NS(=O)(=O)c2c(C(=O)O)c(Cl)nn2C)n1 [halosulfuron]
- resistance of seedlings to the herbicide compared with non-transgenic watermelon [1]: obvious resistance
- resistance of seedlings to the herbicide compared with non-transgenic watermelon [2]: obvious resistance
- resistance of seedlings to the herbicide compared with non-transgenic watermelon [3]: obvious resistance
- resistance of seedlings to the herbicide compared with non-transgenic watermelon [4]: obvious resistance

Structure (SMILES): COc1cc(OC)nc(NC(=O)NS(=O)(=O)Cc2ccccc2C(=O)O)n1 [bensulfuron]
- resistance of seedlings to the herbicide compared with non-transgenic watermelon [1]: obvious resistance
- resistance of seedlings to the herbicide compared with non-transgenic watermelon [2]: obvious resistance
- resistance of seedlings to the herbicide compared with non-transgenic watermelon [3]: obvious resistance
- resistance of seedlings to the herbicide compared with non-transgenic watermelon [4]: obvious resistance

Structure (SMILES): Cc1ccn2nc(S(=O)(=O)Nc3c(F)cccc3F)nc2n1 [flumetsulam]
- resistance of seedlings to the herbicide compared with non-transgenic watermelon [1]: obvious resistance
- resistance of seedlings to the herbicide compared with non-transgenic watermelon [2]: obvious resistance
- resistance of seedlings to the herbicide compared with non-transgenic watermelon [3]: obvious resistance
- resistance of seedlings to the herbicide compared with non-transgenic watermelon [4]: obvious resistance

Structure (SMILES): COc1nn(C(=O)NS(=O)(=O)c2ccccc2OC(F)(F)F)c(=O)n1C [flucarbazone]
- resistance of seedlings to the herbicide compared with non-transgenic watermelon [1]: obvious resistance
- resistance of seedlings to the herbicide compared with non-transgenic watermelon [2]: obvious resistance
- resistance of seedlings to the herbicide compared with non-transgenic watermelon [3]: obvious resistance
- resistance of seedlings to the herbicide compared with non-transgenic watermelon [4]: obvious resistance

Structure (SMILES): COc1cc(OC)nc(NC(=O)NS(=O)(=O)c2c(C(=O)O)cnn2C)n1 [pyrazosulfuron]
- resistance of seedlings to the herbicide compared with non-transgenic watermelon [1]: obvious resistance
- resistance of seedlings to the herbicide compared with non-transgenic watermelon [2]: obvious resistance
- resistance of seedlings to the herbicide compared with non-transgenic watermelon [3]: obvious resistance
- resistance of seedlings to the herbicide compared with non-transgenic watermelon [4]: obvious resistance
